In patent US11555012B2 (Nimbus Artemis, Inc., priority 2018, dated 2023):

target: ACL (Homo sapiens (Human), UniProt P53396); test: ADP-Glo Assay; conditions: not given
Sequence (P53396 other isoform, or with tags, fused parts or gaps isoform P53396-2): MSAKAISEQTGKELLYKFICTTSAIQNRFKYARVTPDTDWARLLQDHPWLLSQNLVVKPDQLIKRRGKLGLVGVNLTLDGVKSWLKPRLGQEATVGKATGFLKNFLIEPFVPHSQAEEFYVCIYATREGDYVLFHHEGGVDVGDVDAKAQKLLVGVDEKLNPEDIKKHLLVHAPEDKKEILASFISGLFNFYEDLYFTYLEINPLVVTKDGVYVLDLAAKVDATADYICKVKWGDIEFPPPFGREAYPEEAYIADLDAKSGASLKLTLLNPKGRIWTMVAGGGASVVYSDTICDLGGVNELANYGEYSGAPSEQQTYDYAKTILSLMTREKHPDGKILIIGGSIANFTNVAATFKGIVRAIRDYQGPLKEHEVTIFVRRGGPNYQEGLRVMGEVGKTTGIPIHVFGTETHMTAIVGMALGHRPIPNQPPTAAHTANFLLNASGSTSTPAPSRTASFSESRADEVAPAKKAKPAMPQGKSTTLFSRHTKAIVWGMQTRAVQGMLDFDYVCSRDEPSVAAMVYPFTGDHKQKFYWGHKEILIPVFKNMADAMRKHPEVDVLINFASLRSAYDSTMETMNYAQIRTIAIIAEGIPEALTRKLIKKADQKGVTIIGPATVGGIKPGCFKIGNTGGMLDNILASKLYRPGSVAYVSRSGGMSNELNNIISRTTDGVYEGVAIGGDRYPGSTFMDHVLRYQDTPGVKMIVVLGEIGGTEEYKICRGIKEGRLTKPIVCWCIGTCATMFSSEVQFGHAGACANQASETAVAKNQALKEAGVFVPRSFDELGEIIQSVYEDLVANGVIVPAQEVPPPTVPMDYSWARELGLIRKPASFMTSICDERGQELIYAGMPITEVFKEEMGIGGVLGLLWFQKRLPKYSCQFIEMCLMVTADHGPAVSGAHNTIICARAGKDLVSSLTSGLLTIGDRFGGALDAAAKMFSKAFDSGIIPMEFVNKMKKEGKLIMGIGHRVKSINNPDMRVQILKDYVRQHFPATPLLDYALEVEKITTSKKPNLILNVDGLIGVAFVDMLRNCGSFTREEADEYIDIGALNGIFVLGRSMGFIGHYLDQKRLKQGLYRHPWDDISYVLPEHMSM

Compound	IC50 [µM]
Cc1cccc(CS(=O)(=O)Nc2cc(-c3ccccc3)ccc2C(=O)O)c1 [I-310, 3-((m-tolylmethyl)sulfonamido)-[1,1′-biphenyl]-4-carboxylic acid]	0.5 to 20
O=C(O)c1ccc(-c2ccccc2)cc1NS(=O)(=O)c1cccc(C(F)(F)F)n1 [I-312, 3-((6-(trifluoromethyl)pyridine)-2-sulfonamido)-[1,1′-biphenyl]-4-carboxylic Acid]	0.5 to 20
COc1ccc(C)cc1S(=O)(=O)Nc1cc(-c2ccccc2)ccc1C(=O)O [I-313, 3-((2-methoxy-5-methylphenyl)sulfonamido)-[1,1′-biphenyl]-4-carboxylic Acid]	0.5 to 20
CC(=O)c1cccc(S(=O)(=O)Nc2cc(-c3ccccc3)ccc2C(=O)O)c1 [I-314, 3-((3-acetylphenyl)sulfonamido)-[1,1′-biphenyl]-4-carboxylic Acid]	0.5 to 20
COc1ccc(F)cc1S(=O)(=O)Nc1cc(-c2ccccc2)ccc1C(=O)O [I-315, 3-((5-fluoro-2-methoxyphenyl)sulfonamido)-[1,1′-biphenyl]-4-carboxylic Acid]	0.5 to 20
O=C(O)c1ccc(-c2ccccc2)cc1NS(=O)(=O)c1cc(Br)cs1 [I-319, 3-((4-bromothiophene)-2-sulfonamido)-[1,1′-biphenyl]-4-carboxylic acid]	0.5 to 20
NC(=O)COc1c(Cl)cc(Cl)cc1C(=O)Nc1cc(-c2ccccc2)ccc1C(=O)O [I-320, 3-(2-(2-amino-2-oxoethoxy)-3,5-dichlorobenzamido)-[1,1′-biphenyl]-4-carboxylic Acid]	0.5 to 20
Cc1ccc(C(=O)O)c(NS(=O)(=O)c2cc(Cl)cc(Cl)c2)c1 [I-321, 2-((3,5-dichlorophenyl)sulfonamido)-4-methylbenzoic Acid]	0.5 to 20
O=C(O)c1ccc(C(F)(F)F)cc1NS(=O)(=O)c1cc(Cl)cc(Cl)c1 [I-324, 2-((3,5-dichlorophenyl)sulfonamido)-4-(trifluoromethyl)benzoic Acid]	0.5 to 20
CN(c1cc(-c2ccccc2)c(F)cc1C(=O)O)S(=O)(=O)c1cc(Cl)cc(Cl)c1 [I-325, 5-((3,5-dichloro-N-methylphenyl)sulfonamido)-2-fluoro-[1,1′-biphenyl]-4-carboxylic Acid]	0.5 to 20
COCc1cc(Cl)cc(S(=O)(=O)Nc2cc(-c3ccccc3)ccc2C(=O)O)c1 [I-337]	0.5 to 20
O=C(O)c1c(NS(=O)(=O)c2cc(Cl)cc(Cl)c2)sc2c1CCC2 [I-341, 2-((3,5-dichlorophenyl)sulfonamido)-5,6-dihydro-4H-cyclopenta[b]thiophene-3-carboxylic acid]	0.5 to 20
O=C(O)c1ccc(-c2ccccc2)cc1NS(=O)(=O)c1cc(Cl)cc(Cl)c1F [I-342, 3-((3,5-dichloro-2-fluorophenyl)sulfonamido)-[1,1′-biphenyl]-4-carboxylic Acid]	0.5 to 20
O=C(O)c1cc(Cl)ccc1NS(=O)(=O)c1cc(Cl)cc(Cl)c1 [I-343, 5-chloro-2-((3,5-dichlorophenyl)sulfonamido)benzoic Acid]	0.5 to 20
Cc1nn(C)c(Cl)c1S(=O)(=O)Nc1cc(-c2ccccc2)ccc1C(=O)O [I-345, 3-((5-chloro-1,3-dimethyl-1H-pyrazole)-4-sulfonamido)-[1,1′-biphenyl]-4-carboxylic Acid]	0.5 to 20
COC(=O)c1ccc(-c2ccccc2)cc1NS(=O)(=O)c1cc(Cl)cnc1O [I-346, methyl 3-((5-chloro-2-hydroxypyridine)-3-sulfonamido)-[1,1′-biphenyl]-4-carboxylate]	0.5 to 20
Cc1noc(C)c1S(=O)(=O)Nc1cc(-c2ccccc2)ccc1C(=O)O [I-351, 3-((3,5-dimethylisoxazole)-4-sulfonamido)-[1,1′-biphenyl]-4-carboxylic Acid]	0.5 to 20

Compound	IC50 [µM]
O=C(O)c1ccsc1NS(=O)(=O)c1cc(Cl)cc(Cl)c1 [I-352, 2-((3,5-dichlorophenyl)sulfonamido)thiophene-3-carboxylic Acid]	0.5 to 20
O=C(O)c1ccc(-c2ccccc2)cc1NS(=O)(=O)c1ccc(C(F)(F)F)cc1 [I-353, 3-((4-(trifluoromethyl)phenyl)sulfonamido)-[1,1′-biphenyl]-4-carboxylic acid]	0.5 to 20
COc1ccc(-c2ccccc2)cc1NS(=O)(=O)c1cc(Cl)c[nH]c1=O [I-354, 5-chloro-N-[4-methoxy-[1,1-biphenyl]-3-yl]-2-oxo-1,2-dihydropyridine-3-sulfonamide]	0.5 to 20
O=C(O)c1ccc(-c2ccccc2)cc1NS(=O)(=O)CCC1CCCC1 [I-356]	0.5 to 20
Cc1cc(S(=O)(=O)Nc2cc(-c3ccccc3)ccc2C(=O)O)ccc1-n1cnnn1 [I-357]	0.5 to 20
O=C(O)c1ccc(-c2ccccc2)cc1NS(=O)(=O)c1ccc(-n2cccn2)c(F)c1 [I-358]	0.5 to 20
O=C(O)c1ccc(-c2ccccc2)cc1NS(=O)(=O)c1cc(Br)cc2c1OCCNC2=O [I-359]	0.5 to 20
O=C(O)c1ccc(-c2ccccc2)cc1NS(=O)(=O)CCOCCN1C(=O)c2ccccc2C1=O [I-360]	0.5 to 20
O=C(O)c1sccc1NS(=O)(=O)c1cc(Cl)cc(Cl)c1 [I-362, 3-((3,5-dichlorophenyl)sulfonamido)thiophene-2-carboxylic Acid]	0.5 to 20
O=C(O)c1c(NS(=O)(=O)c2cc(Cl)cc(Cl)c2)sc2c1CCCC2 [I-363, 2-((3,5-dichlorophenyl)sulfonamido)-4,5,6,7-tetrahydrobenzo[b]thiophene-3-carboxylic Acid]	0.5 to 20
Cc1c(-c2ccccc2)ccc(C(=O)O)c1NS(=O)(=O)c1cc(Cl)cc(C(F)(F)F)c1 [I-365, 3-((3-chloro-5-(trifluoromethyl)phenyl)sulfonamido)-2-methyl-[1,1′-biphenyl]-4-carboxylic Acid]	0.5 to 20
O=C(c1c[nH]c(=O)c(S(=O)(=O)Nc2cc(-c3ccccc3)ccc2F)c1)N1CCC1 [I-369, 5-(azetidine-1-carbonyl)-N-(4-fluoro-[1,1′-biphenyl]-3-yl)-2-oxo-1,2-dihydropyridine-3-sulfonamide]	0.5 to 20
CN(c1cc(-c2ccccc2)ccc1F)S(=O)(=O)c1cc(Cl)cc(Br)c1O [I-370, 3-bromo-5-chloro-N-(4-fluoro-[1,1′-biphenyl]-3-yl)-2-hydroxy-N-methylbenzenesulfonamide]	0.5 to 20
O=S(=O)(Nc1ccc(F)cc1F)c1cc(Cl)cc(-c2nn[nH]n2)c1 [I-373, 3-chloro-N-(2,4-difluorophenyl)-5-(2H-1,2,3,4-tetrazol-5-yl)benzene-1-sulfonamide]	> 20
COc1ccc(-c2ccccc2)cc1NS(=O)(=O)c1cc(C(=O)N2CCC2)cc(Cl)c1OC [I-374, 5-(azetidine-1-carbonyl)-3-chloro-2-methoxy-N-[4-methoxy-[1,1-biphenyl]-3-yl]benzene-1-sulfonamide]	> 20
O=C(COc1c(Cl)cc(C(=O)N2CCC2)cc1S(=O)(=O)Nc1cc(-c2ccccc2)c(F)cc1F)OCc1ccccc1 [I-375, benzyl 2-(4-(azetidine-1-carbonyl)-2-chloro-6-(N-(4,6-difluoro-[1,1′-biphenyl]-3-yl)sulfamoyl)phenoxy)acetate]	> 20
O=S(=O)(Nc1cc(-c2ccccc2)c(F)cc1F)c1cccc2ccccc12 [I-376, N-(4,6-difluoro-[1,1 biphenyl]-3-yl)naphthalene-1-sulfonamide]	> 20

same assay, conditions: read-out: ACL-ADP-Glo (IC50); 3 nM ACL, 15 μM ATP, 3 μM CoA, 300 μM Citrate

Compound	IC50 [µM]
O=C(O)c1ccc(-c2ccccc2)cc1NCc1cc(Cl)cc(Cl)c1 [I-371, 3-((3,5-dichlorobenzyl)amino)-[1,1′-biphenyl]-4-carboxylic Acid]	0.5 to 20
